Source: patent US5593970A, “Heterocyclic anthracycline analogs” (priority 1994, dated 1997)
“And” between values parts separate entries of the source, which are not always exact repeats. Identical values can stand only once. Like-named read-outs stand apart in the source and are kept apart here.

Legend:
Ovarian = assay: NCI assay, average per cancer type; settings: for CC50 / GI50: Homo sapiens; for CC50: 48 h, read-out: Average LOG10 LC50; for GI50: read-out: Average LOG10 GI50
SC Lung = assay: NCI assay, average per cancer type; settings: for CC50 / GI50: Homo sapiens; for CC50: 48 h, read-out: Average LOG10 LC50; for GI50: read-out: Average LOG10 GI50; for Average LOG10 LC50: SC Lung, 2880 min
tumor cell lines = assay: NCI sulforhodamine B assay, all cell lines; settings: Homo sapiens; for CC50 / IC100: 48 h; for CC50: read-out: Log10 LC50, Mean / MG-MID, all cell lines (converted); for IC100: read-out: Log10 TGI, Mean / MG-MID, all cell lines; for GI50: read-out: Log10 GI50, Mean / MG-MID, all cell lines (converted)
Melanoma = assay: NCI assay, average per cancer type; settings: for CC50 / GI50: Homo sapiens; for CC50: 48 h, read-out: Average LOG10 LC50; for GI50: read-out: Average LOG10 GI50; for Average LOG10 LC50: Melanoma, 2880 min
NSC Lung = assay: NCI assay, average per cancer type; settings: for CC50 / GI50: Homo sapiens; for CC50: 48 h, read-out: Average LOG10 LC50; for GI50: read-out: Average LOG10 GI50; for Average LOG10 LC50: NSC Lung, 2880 min
Leukemia = assay: NCI assay, average per cancer type; settings: for CC50: 48 h, read-out: Average LOG10 LC50; for GI50: read-out: Average LOG10 GI50; for Average LOG10 LC50: Leukemia, 2880 min
Colon = assay: NCI assay, average per cancer type; settings: for CC50 / GI50: Homo sapiens; for CC50: 48 h, read-out: Average LOG10 LC50; for GI50: read-out: Average LOG10 GI50; for Average LOG10 LC50: Colon, 2880 min
Renal = assay: NCI assay, average per cancer type; settings: for CC50 / GI50: Homo sapiens; for CC50: 48 h, read-out: Average LOG10 LC50; for GI50: read-out: Average LOG10 GI50; for Average LOG10 LC50: Renal, 2880 min
solid tumors = assay: NCI assay, mean potency in solid tumors; settings: for CC50 / GI50: Homo sapiens; for CC50: 48 h, read-out: Average LOG10 LC50, Mean Potency in solid tumors; for GI50: read-out: Average LOG10 GI50, Mean Potency in solid tumors; for Average LOG10 LC50, Mean Potency in solid tumors: 2880 min
CNS = assay: NCI assay, average per cancer type; settings: for CC50 / GI50: Homo sapiens; for CC50: 48 h, read-out: Average LOG10 LC50; for GI50: read-out: Average LOG10 GI50
T47D = assay: Microculture tetrazolium assay; format: cell-based
LOX = assay: Microculture tetrazolium assay; format: cell-based; settings: read-out: IC50
SKVLB = assay: Microculture tetrazolium assay; format: cell-based; settings: for VLB/OV3: IC50 ratio SKVLB/SKOV3; for IC50: SKVLB
MCF7 = assay: Soft agar colony formation disk diffusion assay; format: cell-based, human; settings: 100 μg/DISK
Excerpt: (§1) A more elaborate version of this fundamental assay, the soft agar colony formation disk diffusion assay was used. This assay defines the relative activity of one particular drug versus a tumoral cell line type. The effect of the test drug against tumoral cells could be measured by its inhibitory capacity against colony formation after the delivery of the compound, in different concentrations on an filter disk(4). A modified technique of this assay was used in order to investigate the antiproliferative activity of candidate compounds. Tumoral cells from solid tumors and ascitic lines were plated separately in a two layer agar matrix. Cell lines to be tested were suspended in an upper layer of 0.4% Noble agar (Difco#00142-01) in RPMI-1066 (Gibco#3201875) at a yield varying between 10^4 to 2×10^5 cells per 60 mm Petri dish. Plating efficiency was determined for each line in order to achieve an optimal number of colonies per dish. Plates were examined before drug administration to confirm a uniform dispersion of single cells. The bottom layer consisted of 0.8% Noble agar, 0.8% Tryptic Soy Broth (difco#0037001)in CMRL-1066/Fischer's. The bottom layers were used within 2 and 9 days of preparation. Plated dishes (bottom layer of agar, upper layer of cells and administered drug were incubated in humidified atmosphere at 37° C., 5% CO2 for 10-20 days depending upon the time necessary to observe adequate colonies (defined as a cell aggregate of more than 50 cells) both control and drug inhibited. Drugs were administered on a paper filter disk (Whatman No. 1) of 6.5 mm diameter placed on the upper layer at 1/3 distance from the edge of the dish. The anti-clonogenic activity of the compounds was measured as the zone of inhibition from the disk edge to the most proximal colonies. This zone of inhibition was checked on an inverted microscope (40×) and was measured with a micrometer mounted in the eyepiece. The ocular micrometer was calibrated with a stage micrometer set for a particular combination of ocular and objective lenses. […] We made a modification of the initial technique by not plating a solid tumor and a leukemia simultaneously in the same Petri dish. Anti-clonogenic tests performed on leukemia cell line have helped in the discovery of the majority of current clinically used cytostatic drugs. Our tests on solid tumor lines (animal or human) may help define active compounds with solid tumor specificity. […] HUMAN TUMORS. […] LS180 (13) and BE1(14) were obtained from the Oncology Dept. of the Montreal General Hospital. […] Cell lines were routinely passaged twice a week by trypsinization and maintained in 25, or 75-sq. cm Falcon Plastic flasks at 37° C., 5% CO2 in humidified atmosphere. Both compounds were dissolved in DMSO (1 mg/100 ul) and brought to final volume (250 ul) with Millipore deionized sterile water. Further dilutions were made with […] volume of 25 ul of freshly prepared solution was placed on the filter disk and allowed to dry.

MCF7/ADR = assay: Soft agar colony formation disk diffusion assay; format: cell-based, human; settings: 100 μg/DISK
Excerpt: as §1

SKOV3 = assay: Microculture tetrazolium assay; format: cell-based; settings: Homo sapiens, SK-OV-3, SKOV3; read-out: IC50
MATB.WT = assay: Soft agar colony formation disk diffusion assay; format: cell-based, rat; settings: 100 μg/DISK
Excerpt: (§2) A more elaborate version of this fundamental assay, the soft agar colony formation disk diffusion assay was used. This assay defines the relative activity of one particular drug versus a tumoral cell line type. The effect of the test drug against tumoral cells could be measured by its inhibitory capacity against colony formation after the delivery of the compound, in different concentrations on an filter disk(4). A modified technique of this assay was used in order to investigate the antiproliferative activity of candidate compounds. Tumoral cells from solid tumors and ascitic lines were plated separately in a two layer agar matrix. Cell lines to be tested were suspended in an upper layer of 0.4% Noble agar (Difco#00142-01) in RPMI-1066 (Gibco#3201875) at a yield varying between 10^4 to 2×10^5 cells per 60 mm Petri dish. Plating efficiency was determined for each line in order to achieve an optimal number of colonies per dish. Plates were examined before drug administration to confirm a uniform dispersion of single cells. The bottom layer consisted of 0.8% Noble agar, 0.8% Tryptic Soy Broth (difco#0037001)in CMRL-1066/Fischer's. The bottom layers were used within 2 and 9 days of preparation. Plated dishes (bottom layer of agar, upper layer of cells and administered drug were incubated in humidified atmosphere at 37° C., 5% CO2 for 10-20 days depending upon the time necessary to observe adequate colonies (defined as a cell aggregate of more than 50 cells) both control and drug inhibited. Drugs were administered on a paper filter disk (Whatman No. 1) of 6.5 mm diameter placed on the upper layer at 1/3 distance from the edge of the dish. The anti-clonogenic activity of the compounds was measured as the zone of inhibition from the disk edge to the most proximal colonies. This zone of inhibition was checked on an inverted microscope (40×) and was measured with a micrometer mounted in the eyepiece. The ocular micrometer was calibrated with a stage micrometer set for a particular combination of ocular and objective lenses. […] We made a modification of the initial technique by not plating a solid tumor and a leukemia simultaneously in the same Petri dish. Anti-clonogenic tests performed on leukemia cell line have helped in the discovery of the majority of current clinically used cytostatic drugs. Our tests on solid tumor lines (animal or human) may help define active compounds with solid tumor specificity. […] Murine tumors were maintained IN VIVO in order to diminish the selection of subpopulations of cells normally present in the heterogenous IN VIVO tumor. The actual drug sensitivity assay was done IN VITRO. For these experiments cells from freshly excised tumors or from ascitic fluids were maintained in RPMI-1066. Both compounds were dissolved in DMSO (1 mg/100 ul) and brought to final volume (250 ul) with Millipore deionized sterile water. Further dilutions were made with […] volume of 25 ul of freshly prepared solution was placed on the filter disk and allowed to dry.

MATB/ADR = assay: Soft agar colony formation disk diffusion assay; format: cell-based, rat
Excerpt: as §2

Row | SMILES | CC50 (Ovarian) | GI50 (Ovarian) | CC50 (SC Lung) | GI50 (SC Lung) | CC50 (tumor cell lines) | IC100 (tumor cell lines) | GI50 (tumor cell lines) | CC50 (Melanoma) | GI50 (Melanoma) | CC50 (NSC Lung) | GI50 (NSC Lung) | CC50 (Leukemia) | GI50 (Leukemia) | CC50 (Colon) | GI50 (Colon) | CC50 (Renal) | GI50 (Renal) | CC50 (solid tumors) | GI50 (solid tumors) | GI50 (CNS) | also measured
1 | COC(=O)[C@@H]1CC2=C(C(=O)c3cc4ccccc4c(O)c3C2=O)[C@@H](O[C@H]2C[C@H](NC(=O)C(F)(F)F)[C@H](O)[C@H](C)O2)O1 [BCH-683] | 15.8 µM | 2.09 µM | 8.32 µM | 1.86 µM | 21.9 µM | 5.75 µM | 2.14 µM | 7.08 µM | 1.12 µM | 28.2 µM | 3.02 µM | < 100 µM | 1.82 µM | 10.5 µM | 1.29 µM | 26.3 µM | 3.16 µM | 15.5 µM | 2.09 µM | 3.39 µM | CC50 (CNS): 31.6 µM
2 | COc1cccc2c1C(=O)c1c(O)c3c(c(O)c1C2=O)C[C@@](O)(C(C)=O)C[C@@H]3O[C@H]1C[C@H](N)[C@H](O)[C@H](C)O1 [DNM, reference compound] |  | 0.138 µM |  | 0.0724 µM |  |  |  | 2.29 µM | 0.112 µM | 8.51 µM | 0.0912 µM | 50.1 µM | 0.0562 µM | 14.8 µM | 0.151 µM | 16.6 µM | 0.162 µM |  | 0.112 µM | 0.0912 µM | Average LOG10 LC50 (Ovarian; Ovarian, 2880 min): -4.78 ± 0.20 log molar; Average LOG10 LC50 (SC Lung): -5.58 ± 0.09 log molar; Average LOG10 LC50 (Melanoma): -5.64 ± 0.17 log molar; Average LOG10 LC50 (NSC Lung): -5.07 ± 0.37 log molar; Average LOG10 LC50 (Leukemia): -4.30 ± 0.36 log molar; Average LOG10 LC50 (Colon): -4.83 ± 0.37 log molar; Average LOG10 LC50 (Renal): -4.78 ± 0.46 log molar; Average LOG10 LC50, Mean Potency in solid tumors (solid tumors): -5.11 ± 0.34 log molar; Average LOG10 LC50 (CNS; CNS, 2880 min): -5.08 ± 0.42 log molar
3 | COc1cccc2c1C(=O)c1c(O)c3c(c(O)c1C2=O)C[C@@](O)(C(=O)CO)C[C@@H]3O[C@H]1C[C@H](N)[C@H](O)[C@H](C)O1 [ADR, reference compound] |  | 0.282 µM |  | 0.0537 µM |  |  |  | 2.75 µM | 0.12 µM | 9.77 µM | 0.0468 µM | 17.4 µM | 0.0309 µM | 13.8 µM | 0.245 µM | 13.5 µM | 0.182 µM |  | 0.117 µM | 0.0851 µM | Average LOG10 LC50 (SC Lung): -5.39 ± 0.18 log molar; IC50 (T47D; Homo sapiens): 0.0763 µM; IC50 (T47D; listed as Adriamycin): 0.072 µM; Average LOG10 LC50 (Melanoma): -5.56 ± 0.29 log molar; IC50 (LOX): 0.0437 µM; Average LOG10 LC50 (NSC Lung): -5.01 ± 0.26 log molar; Average LOG10 LC50 (Leukemia): -4.76 ± 0.10 log molar; VLB/OV3 (SKVLB; listed as Adriamycin): 82.63 and 121.5; IC50 (SKVLB): 4.72 µM; Average LOG10 LC50 (Colon): -4.86 ± 0.27 log molar; Average LOG10 LC50 (Renal): -4.87 ± 0.38 log molar; Average LOG10 LC50, Mean Potency in solid tumors (solid tumors): -5.07 ± 0.28 log molar
4 | COC(=O)[C@H]1CC2=C(C(=O)c3cc4ccccc4cc3C2=O)[C@H](O[C@H]2C[C@H](NC(=O)C(F)(F)F)[C@H](O)[C@H](C)O2)O1 [BCH-670] | 39.8 µM | 3.8 µM | 38.9 µM | 3.31 µM | 29.5 µM | 8.32 µM | 2.75 µM | 20.4 µM | 1.78 µM | 24 µM | 3.09 µM | > 100 µM | 1.66 µM | 25.1 µM | 2.04 µM | 29.5 µM | 4.37 µM | 26.9 µM | 3.02 µM | 3.63 µM | CC50 (CNS): 26.3 µM
5 | CCOC(=O)[C@@H]1CC2=C(C(=O)c3c(cc4ccccc4c3O)C2=O)[C@@H](O[C@H]2C[C@H](NC(=O)C(F)(F)F)[C@H](O)[C@H](C)O2)O1 [BCH-673] | 21.9 µM | 1.55 µM | 36.3 µM | 1.82 µM | 20.9 µM | 4.47 µM | 1.48 µM | 13.5 µM | 1.48 µM | 21.9 µM | 1.74 µM | > 100 µM | 1.07 µM | 34.7 µM | 0.794 µM | 11 µM | 1.58 µM | 21.9 µM | 1.55 µM | 2.24 µM | CC50 (CNS): 26.9 µM
6 | CCOC(=O)C1Cc2c(OCC)c3c(c(O)c2C(O[C@H]2C[C@H](NC(=O)C(F)(F)F)[C@H](O)[C@H](C)O2)O1)C(=O)c1ccccc1C3=O (stereo partly drawn) [BCH-705] |  |  |  |  |  |  |  |  |  |  |  |  |  |  |  |  |  |  |  |  | zone of inhibition (MCF7): 79.3 ± 8.6 Zone Units; zone of inhibition (MCF7/ADR): 35.5 ± 7.3 Zone Units; IC50 (SKOV3): 12.9 µM; VLB/OV3 (SKVLB): 1.09; IC50 (SKVLB; read-out: IC50): 14.1 µM; zone of inhibition (MATB.WT): 259.2 ± 21.5 Zone Units; cross resistance with adriamycin, MATB/ADR vs MATB.WT (MATB/ADR): no cross resistance with adriamycin; zone of inhibition (MATB/ADR; 100 μg/DISK): 155.5 ± 4.3 Zone Units
